Series [1] concerns acetylated α‐tubulin (HDAC6 activity) in MCF‐7 cells. The experiment in a line: Western blot target engagement in MCF-7 cells: acetylated α-tubulin. As to conditions: MCF-7 cell lysates after 24-hour treatment. It is filed as cell-based, human. A general note: In western blotting, separated proteins are transferred to a membrane and probed.
The target in the next series is HDAC3/NcoR2 (Homo sapiens, UniProt O15379). The experiment in a line: In vitro HDAC inhibition preincubation assay (ZMAL substrate).
Sequence of HDAC3/NcoR2 (O15379 whole entry): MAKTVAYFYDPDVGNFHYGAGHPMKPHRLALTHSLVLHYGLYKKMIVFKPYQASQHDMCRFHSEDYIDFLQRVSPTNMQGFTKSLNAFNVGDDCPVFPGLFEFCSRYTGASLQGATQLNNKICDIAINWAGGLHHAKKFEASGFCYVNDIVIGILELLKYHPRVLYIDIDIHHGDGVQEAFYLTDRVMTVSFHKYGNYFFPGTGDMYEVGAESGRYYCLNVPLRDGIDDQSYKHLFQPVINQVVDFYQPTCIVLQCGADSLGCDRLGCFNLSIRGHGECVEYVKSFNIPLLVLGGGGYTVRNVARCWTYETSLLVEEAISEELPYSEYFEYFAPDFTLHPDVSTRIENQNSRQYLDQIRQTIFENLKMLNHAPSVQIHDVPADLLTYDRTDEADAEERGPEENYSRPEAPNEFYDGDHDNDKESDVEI
Sequence of HDAC3/NcoR2 (Q9Y618 395-489 partner limits assumed): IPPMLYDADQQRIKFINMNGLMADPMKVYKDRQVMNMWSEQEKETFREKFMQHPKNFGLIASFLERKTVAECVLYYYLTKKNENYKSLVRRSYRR
For series [2], the system named is BT‐474 breast cancer cell line. The experiment in a line: WST-8 cell viability assay. As to conditions: Homo sapiens, BT-474, 120 h, read-out: IC50 BT‐474. On the technique in general: Tetrazolium dyes change colour on reduction, which living cells bring about.
The nature of series [3]: Solubility in PBS buffer by OECD flask method with HPLC quantification. Conditions: 25 °C, pH 7.4, aqueous buffer, thermodynamic from solid, pH=7.4, flask method, 25 °C, 72 h, mean ±SD, read-out: Solubility. It is filed as physicochemical.
The test system of series [4] is T‐47D breast cancer cell line. The experiment in a line: WST-8 cell viability assay. As to conditions: Homo sapiens, T47D, 120 h, read-out: IC50 T‐47D.
The next series has as its system MCF‐7 cells. The experiment in a line: Modified wound healing (migration) assay. Conditions: MCF-7, 10 μM, followed over 97 h, compared to DMSO control. The series is classed as cell-based, human.
Series [5] has as its target T1, HDAC2 (Homo sapiens, UniProt Q92769). The experiment in a line: In vitro HDAC inhibition preincubation assay (ZMAL substrate).
Series [6] has as its target T2, HDAC1 (Homo sapiens, UniProt Q13547). Described as above.
The target in series [7] is T1, HDAC2. The experiment in a line: IC50-shift experiments (varied preincubation time). It is filed as biochemical. Also on record: purchased BPS Bioscience 50052. As to conditions: triplicates.
Protocol: (§1) into OptiPlate-96 black micro-plates (PerkinElmer).
(§2) Afterwards, the fluorogenic substrate ZMAL
The total assay volume (50 µL,
(§3) max. […] Subsequently, 50 µL trypsin solution (0.4
(§4) enzymes and the respective inhibitor dilutions were preincubated at 20 °C for 5 to 120 minutes.
(§5) Afterwards, the assay protocol was continued as stated above. Compounds were tested in
(§6) triplicates and the assay was rerun if necessary. The respective IC50 values and P95 confidence
(§7) intervals were determined using Prism 9 for MacOS.
Series [8] has as its target T2, HDAC1. The experiment in a line: 100-fold Jump-Dilution experiments. As to conditions: diluted inhibitor concentration as indicated per compound, vehicle [DMSO 1 %]=111.9. The series is classed as biochemical.
The test system of series [9] is MCF‐7 breast cancer cell line. The experiment in a line: WST-8 cell viability assay. Conditions: Homo sapiens, MCF7, 120 h, read-out: IC50 MCF‐7.
Series [10] is described as follows: LogD7.4 by OECD slow-stirring method with HPLC quantification. Conditions: 1-octanol/PBS buffer (mutually saturated), pH 7.4, LogD7.4, slow-stirring method, 1-octanol/PBS buffer pH 7.4, 25 °C, 48 h.
Series [11] addresses T2, HDAC1. The experiment in a line: IC50-shift experiments (varied preincubation time). It is filed as biochemical. As to conditions: triplicates.
The target in a further series is T3, human recombinant HDAC6 (Homo sapiens, UniProt Q9UBN7).
T3 sequence (Q9UBN7 1-1215): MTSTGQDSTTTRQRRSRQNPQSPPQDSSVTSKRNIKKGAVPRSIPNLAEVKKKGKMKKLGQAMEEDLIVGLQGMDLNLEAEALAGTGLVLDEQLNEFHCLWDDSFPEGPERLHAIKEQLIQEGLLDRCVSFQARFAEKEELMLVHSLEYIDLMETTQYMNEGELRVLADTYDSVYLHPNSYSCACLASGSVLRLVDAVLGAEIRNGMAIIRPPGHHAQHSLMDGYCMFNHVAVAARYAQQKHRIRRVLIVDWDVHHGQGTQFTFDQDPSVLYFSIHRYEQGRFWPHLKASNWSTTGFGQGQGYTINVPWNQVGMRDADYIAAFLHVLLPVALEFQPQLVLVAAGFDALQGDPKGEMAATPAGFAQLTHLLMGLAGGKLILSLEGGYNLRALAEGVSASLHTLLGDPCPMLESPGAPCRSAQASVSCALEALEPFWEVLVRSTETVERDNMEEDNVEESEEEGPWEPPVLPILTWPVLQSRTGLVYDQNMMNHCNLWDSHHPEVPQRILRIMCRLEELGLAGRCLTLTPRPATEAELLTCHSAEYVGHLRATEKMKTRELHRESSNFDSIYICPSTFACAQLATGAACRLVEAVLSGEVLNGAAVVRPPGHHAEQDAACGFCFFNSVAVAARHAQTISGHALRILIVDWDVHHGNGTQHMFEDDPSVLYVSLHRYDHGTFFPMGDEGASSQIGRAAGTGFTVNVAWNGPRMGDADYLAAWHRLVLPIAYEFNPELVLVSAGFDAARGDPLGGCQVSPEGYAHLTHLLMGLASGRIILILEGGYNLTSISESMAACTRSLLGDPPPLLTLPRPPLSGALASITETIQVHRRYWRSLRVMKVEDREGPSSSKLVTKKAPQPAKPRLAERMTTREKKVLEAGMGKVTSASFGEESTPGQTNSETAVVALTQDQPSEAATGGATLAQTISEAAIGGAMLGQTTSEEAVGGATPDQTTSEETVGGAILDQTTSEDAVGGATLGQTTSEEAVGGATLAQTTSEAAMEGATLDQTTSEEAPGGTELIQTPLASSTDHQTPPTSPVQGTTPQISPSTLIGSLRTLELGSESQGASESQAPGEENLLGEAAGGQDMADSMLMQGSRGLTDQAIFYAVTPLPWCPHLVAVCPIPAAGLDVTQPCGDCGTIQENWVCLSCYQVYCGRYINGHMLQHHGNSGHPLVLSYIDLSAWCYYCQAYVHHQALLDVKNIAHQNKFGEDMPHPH
The experiment in a line: In vitro HDAC inhibition preincubation assay (ZMAL substrate).

Series [12] deals with T2, HDAC1. The experiment in a line: Binding kinetics via the Progression Method. The series is classed as biochemical. Conditions: relationship between kobs and [I]; triplicates.
Protocol: (§8) To determine the binding mechanism at the respective HDAC isoform, a series of progression curves were generated, using fixed concentrations of enzyme, substrate, and different inhibitor concentrations. The in situ AMC release was monitored continuously by fluorescence readings recorded every 30 s for 60 or 90 min at 37 °C. The data of each progression curve were fitted to the appropriate equation (Prism 9.1.0 for MacOS). For inhibitors showing slow‐binding Mechanism I&II (Figure 5) time‐dependent product formation follows Eq. 1: (Eq. 1) P=vsst+vin-vss/kobs1-e^-kobst
(§9) where [P] is the amount of generated AMC, which directly correlates with the amount of deacetylated substrate over time [t]. V in and v ss are the initial and final steady‐state velocities of product formation and k obs is the apparat first‐order rate constant for the conversion from the initial velocity to the steady‐state velocity. It characterizes the formation of an enzyme–inhibitor equilibrium.
Fast‐on/fast‐off inhibitors. […] In this case Eq. 1 simplifies as follows: (Eq. 2) P=vsst
Therefore, the deacetylation rate in absence (v 0) and presence (v i) of the inhibitor is constant over time. […] [I] and [S] are the inhibitor and substrate concentrations, respectively and K m is the Michaelis‐Menten constant.
Slow‐binding inhibitors. The slow‐binding Mechanisms I & II are distinguished by their respective relationships between k obs and the inhibitor concentration. For the single‐step slow‐binding Mechanism I the relationship between inhibitor concentration and k obs is linear. The association and dissociation rate constants (k 1 & k −1, see Figure 5) can be obtained by fitting k obs as a function of [I] to Eq. 4. (Eq. 4) kobs=k-1+k11+S/KmI
The secondary association and dissociation rate constants k 2 & k −2 (see Figure 5) as well as the equilibrium dissociation constant K i,1 of the initial inhibitor‐enzyme encounter complex [EI] can be obtained by fitting k obs as a function of [I] (Eq. 5. (Eq. 5) kobs=k-2+k2/I+Ki,11+S/KmI
Determination of binding kinetics via the Progression Method.[14] HDAC1 and HDAC3
deacetylase activities were evaluated at varying inhibitor concentrations. Appropriate inhibitor
concentrations were chosen based on the previously determined IC50 values. To ensure substrate
excess during the experiment, the substrate concentration was set to five times Km. Km was
determined using a series of substrate concentrations.
For the progression curves, the
respective enzyme was incubated with the fluorogenic substrate and inhibitor in assay buffer
(§10) 90 minutes at 37°C. The relationship between AMC concentration and relative fluorescence units
(RFU) was determined and the measured RFU were transformed into the respective AMC
concentration in µM. […]
Series [13] has as its target T4, HDAC3 (Homo sapiens, UniProt O15379). The experiment in a line: IC50-shift experiments (varied preincubation time). The series is classed as biochemical. As to conditions: triplicates.
Protocol: as §1, §2
The total assay volume (50 µL,
as §3, §4, §5, §6, §7
Series [14] has as its target T4, HDAC3. The experiment in a line: Binding kinetics via the Progression Method. It is filed as biochemical. As to conditions: relationship between kobs and [I]; triplicates.
Protocol: as §8, §9
Fast‐on/fast‐off inhibitors. […]
deacetylase activities were evaluated at varying inhibitor concentrations. […]
concentrations were chosen based on the previously determined IC50 values. […]
determined using a series of substrate concentrations. […]
as §10
(RFU) was determined and the measured RFU were transformed into the respective AMC […]
Series [15] deals with T4, HDAC3. The experiment in a line: 100-fold Jump-Dilution experiments. It is filed as biochemical. Conditions: diluted inhibitor concentration as indicated per compound, vehicle [DMSO 1%] = 56.7.
The nature of another series: physchem. As to conditions: 1-octanol/PBS buffer (mutually saturated), pH 7.4.
Setting [16] is: HDAC1 IC50, preincubation 5 min, preincubation time 5 min at 20°C.
[17] abbreviates: HDAC1 IC50, preincubation 30 min, preincubation time 30 min at 20°C.
[18] abbreviates: HDAC1 IC50, preincubation 60 min, preincubation time 60 min at 20°C.
Setting [19] is: HDAC1 IC50, preincubation 120 min, preincubation time 120 min at 20°C.

Values after ≈ are worked out from the molar mass of the structure shown. A value given as a limit tells only on which side of the number the result lay.

T4 sequence (O15379 whole entry): as the sequence (O15379 whole entry) above
T4 sequence (Q9Y618 395-489 partner limits assumed): as the sequence (Q9Y618 395-489 partner limits assumed) above
T1 sequence (Q92769 whole entry): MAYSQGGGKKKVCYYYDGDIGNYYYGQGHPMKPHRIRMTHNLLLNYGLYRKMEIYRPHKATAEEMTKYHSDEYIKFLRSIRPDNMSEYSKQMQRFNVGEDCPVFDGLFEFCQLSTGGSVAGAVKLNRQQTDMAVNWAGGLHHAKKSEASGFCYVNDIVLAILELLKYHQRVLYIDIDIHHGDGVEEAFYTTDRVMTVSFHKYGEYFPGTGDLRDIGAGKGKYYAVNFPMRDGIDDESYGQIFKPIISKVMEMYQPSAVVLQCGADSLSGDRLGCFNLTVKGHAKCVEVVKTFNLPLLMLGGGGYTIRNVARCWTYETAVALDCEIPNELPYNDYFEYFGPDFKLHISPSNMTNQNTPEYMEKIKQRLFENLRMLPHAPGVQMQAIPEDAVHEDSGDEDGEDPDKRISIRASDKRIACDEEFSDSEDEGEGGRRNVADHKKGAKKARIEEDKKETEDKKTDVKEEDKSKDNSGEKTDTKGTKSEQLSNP
T2 sequence (Q13547 whole entry): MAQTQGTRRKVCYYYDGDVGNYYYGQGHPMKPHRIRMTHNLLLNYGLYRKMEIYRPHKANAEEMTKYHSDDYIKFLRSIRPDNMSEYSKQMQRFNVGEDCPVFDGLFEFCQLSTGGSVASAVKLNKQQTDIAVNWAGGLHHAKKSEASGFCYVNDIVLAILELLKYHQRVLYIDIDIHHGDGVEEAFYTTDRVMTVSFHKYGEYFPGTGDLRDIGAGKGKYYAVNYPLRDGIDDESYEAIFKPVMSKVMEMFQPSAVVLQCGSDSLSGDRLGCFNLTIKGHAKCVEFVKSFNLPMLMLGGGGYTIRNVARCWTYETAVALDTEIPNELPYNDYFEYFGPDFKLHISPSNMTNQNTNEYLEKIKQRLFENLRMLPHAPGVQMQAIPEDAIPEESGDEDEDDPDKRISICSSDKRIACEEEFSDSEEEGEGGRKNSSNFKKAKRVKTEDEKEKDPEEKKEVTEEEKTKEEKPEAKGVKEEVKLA

Usually IC50 stands for the point on the concentration scale where inhibition reaches its midpoint. As usually defined, the solubility is the dissolved amount per volume that the medium holds. What is called logD is the decadic logarithm of the distribution of all forms, ionised or not, between an organic phase and buffer at a given pH. Read a high logD as higher lipophilicity. Consider `CC(=O)Nc1ccc(C(=O)Nc2cc(-c3ccncc3)ccc2N)cc1` [6 d], for which the “acetylated α‐tubulin (western blot)” value in [1] is reported as “non‐detectable”. Besides, the IC50 at HDAC3/NcoR2 is 8910 nM; in [2] it was over 8000 nM; in series [4], 1010 ± 190 nM; against HDAC2 [5] it was 77.2 ± 9.2 nM; against HDAC1 [6] it was 13.2 ± 1 nM; on HDAC2 [7] (HDAC2 IC50, preincubation 5 min, preincubation time 5 min at 20°C) it was 98.2 nM. Besides, the 50% inhibitory concentration (IC50) is 89 nM on HDAC2 [7] (HDAC2 IC50, preincubation 15 min, preincubation time 15 min at 20°C); 83 nM on HDAC2 [7] (HDAC2 IC50, preincubation 30 min, preincubation time 30 min at 20°C); 77.4 nM at HDAC2 [7] (HDAC2 IC50, preincubation 60 min, preincubation time 60 min at 20°C); 63.2 nM at HDAC2 [7] (HDAC2 IC50, preincubation 120 min, preincubation time 120 min at 20°C); 11100 ± 3850 nM in [9]; 54.1 nM on HDAC1 [11] (setting [16]). The IC50 at HDAC1 [11] (HDAC1 IC50, preincubation 15 min, preincubation time 15 min at 20°C) was 53.5 nM; on HDAC1 [11] (setting [17]), 44.5 nM; at HDAC1 [11] (setting [18]), 40.8 nM; at HDAC1 [11] (setting [19]) it was 25.4 nM; on human recombinant HDAC6 it was over 10000 nM. For the same compound, the solubility at 72 h in series [3] was determined as 16.5 ± 0.3 µg/mL (≈ 47.6 µM). For the same compound, the “effect on cell migration (wound closure)” value with MCF‐7 cells is reported as “attenuated cell migration significantly”. Also, the “selectivity for HDAC1 over HDAC3” value on HDAC1 [6] (ratio of IC50 values HDAC3/HDAC1) is reported as 675 fold. Also, on HDAC1 [8], the “Final slope of progression curve after 100-fold dilution (HDAC1)” value turned out to be 39.4 RFU*min^−1. Moreover, the logD at 48 h in [10] turned out to be 1.75. Besides, the “binding mechanism at HDAC1” value at HDAC1 [12] is given as “slow‐binding Mechanism II”.

Take `CN(C)c1ccc(C(=O)N(CC(=O)NCc2ccccc2)Cc2ccc(C(=O)Nc3ccccc3N)cc2)cc1` [VK‐1, reference compound]: the 50% inhibitory concentration (IC50) stood at 310 ± 7.8 nM against HDAC3/NcoR2; 794 nM at HDAC3 [13] (HDAC3 IC50, preincubation 5 min, preincubation time 5 min at 20°C); 432 nM at HDAC3 [13] (HDAC3 IC50, preincubation 30 min, preincubation time 30 min at 20°C); 299 nM on HDAC3 [13] (HDAC3 IC50, preincubation 60 min, preincubation time 60 min at 20°C); 171 nM at HDAC3 [13] (HDAC3 IC50, preincubation 120 min, preincubation time 120 min at 20°C); 128 ± 14.5 nM against HDAC2 [5]. The IC50 at HDAC1 [6] came out at 68.6 ± 10.4 nM; at HDAC1 [11] (setting [16]) it was 93 nM; at HDAC1 [11] (setting [17]), 57.4 nM; on HDAC1 [11] (setting [18]), 48.3 nM; on HDAC1 [11] (setting [19]) it was 35.6 nM. In addition, the “binding mechanism at HDAC3” value on HDAC3 [14] is listed as “slow-binding Mechanism II”. The “Final slope of progression curve after 100-fold dilution (HDAC1)” value at HDAC1 [8] is recorded as 39.2 RFU*min^−1. In addition, the “Final slope of progression curve after 100-fold dilution (HDAC3)” value at HDAC3 [15] came out at 2.51 RFU*min-1. The “binding mechanism at HDAC1” value at HDAC1 [12] is reported as “slow‐binding Mechanism II”. For the same compound, the log distribution coefficient (logD) at 48 h in “physchem” is 3.19.

For the origin of these results see paper PMC9303312, “Balancing Histone Deacetylase (HDAC) Inhibition and Drug‐likeness: Biological and Physicochemical Evaluation of Class I Selective HDAC Inhibitors” (Chemmedchem, 2022).
